Results from ChEMBL document CHEMBL1201862, “PubChem BioAssay data set” (2004).
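96-well plates; 48 h exposure; 5 concentrations. Endpoints by linear interpolation between flanking doses. Not reached: highest tested concentration assigned. GI50: concentration for 50% inhibition of growth.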 The source made the active and inactive calls. Rule as the data show it: active = GI50 up to about 1.1 µM and inactive = higher.

Assays:
Experiment in all cases: growth of human tumour cells (NCI), 48 h
NCI/ADR-RES = tested on: NCI/ADR-RES
SK-OV-3 = tested on: SK-OV-3
OVCAR-8 = tested on: OVCAR-8
MDA-MB-435 = tested on: MDA-MB-435
DU-145 = tested on: DU-145
SN12C = tested on: SN12C
RXF 393 = tested on: RXF 393
MOLT-4 = tested on: MOLT-4
SW-620 = tested on: SW-620
OVCAR-3 = tested on: OVCAR-3
SK-MEL-5 = tested on: SK-MEL-5
UACC-62 = tested on: UACC-62
NCI-H522 = tested on: NCI-H522
HOP-92 = tested on: HOP-92
NCI-H23 = tested on: NCI-H23
OVCAR-5 = tested on: OVCAR-5
MDA-MB-231 = tested on: MDA-MB-231
TK-10 = tested on: TK-10
HOP-62 = tested on: HOP-62

Measured: GI50

Cn1c(=S)c2nc(SCCN3C(=O)c4ccccc4C3=O)[nH]c2n(C)c1=O
inactive: NCI/ADR-RES > 100 µM | SK-OV-3 > 100 µM | OVCAR-8 > 100 µM | MDA-MB-435 > 100 µM | DU-145 > 100 µM | SN12C > 100 µM | RXF 393 > 100 µM | MOLT-4 88.3 µM | SW-620 > 100 µM | OVCAR-3 > 100 µM | SK-MEL-5 > 100 µM | UACC-62 > 100 µM | NCI-H522 5.27 µM | HOP-92 > 100 µM | NCI-H23 > 100 µM | OVCAR-5 > 100 µM | MDA-MB-231 > 100 µM | TK-10 > 100 µM | HOP-62 > 100 µM

CC(=O)/C(=C\NC(=S)Nc1ccc(S(N)(=O)=O)cc1)C(=O)Nc1ccccc1C
inactive: NCI/ADR-RES > 100 µM | SK-OV-3 34.2 µM | OVCAR-8 72.9 µM | MDA-MB-435 32.3 µM | DU-145 57.7 µM | SN12C 71 µM | RXF 393 37.1 µM | MOLT-4 28.5 µM | SW-620 37.4 µM | OVCAR-3 64.7 µM | SK-MEL-5 44 µM | UACC-62 35.2 µM | NCI-H522 41.7 µM | HOP-92 37.3 µM | NCI-H23 71.3 µM | OVCAR-5 99.3 µM | MDA-MB-231 34.2 µM | TK-10 88.7 µM | HOP-62 95.3 µM

CC1=NN2C(=N)/C(=C/c3ccco3)C(=O)N=C2S1
inactive: NCI/ADR-RES > 100 µM | SK-OV-3 > 100 µM | OVCAR-8 > 100 µM | MDA-MB-435 > 100 µM | DU-145 > 100 µM | SN12C > 100 µM | RXF 393 > 100 µM | MOLT-4 > 100 µM | SW-620 > 100 µM | OVCAR-3 > 100 µM | SK-MEL-5 > 100 µM | UACC-62 > 100 µM | NCI-H522 1.15 µM | HOP-92 65.5 µM | NCI-H23 > 100 µM | OVCAR-5 > 100 µM | MDA-MB-231 > 100 µM | TK-10 > 100 µM | HOP-62 > 100 µM

Nc1n[n+]2cc(-c3ccccc3)n(CC(=O)c3ccccc3)c2s1
inactive: NCI/ADR-RES > 100 µM | SK-OV-3 > 100 µM | OVCAR-8 52 µM | MDA-MB-435 36.9 µM | DU-145 50.9 µM | SN12C 42.6 µM | RXF 393 20.4 µM | MOLT-4 20.9 µM | SW-620 23.2 µM | OVCAR-3 23.8 µM | SK-MEL-5 23.1 µM | UACC-62 30.5 µM | NCI-H522 13.3 µM | HOP-92 14.1 µM | NCI-H23 20.6 µM | OVCAR-5 18.8 µM | MDA-MB-231 29.5 µM | TK-10 23.6 µM | HOP-62 24.8 µM

CC1SC2(CCCCC2)N(NC(=O)CSc2nc3ccc(Cl)cc3c(=O)n2-c2ccccc2)C1=O (centres undefined)
inactive: NCI/ADR-RES 22.1 µM | SK-OV-3 33.3 µM | OVCAR-8 26.1 µM | MDA-MB-435 23.4 µM | DU-145 27 µM | SN12C 17.5 µM | RXF 393 19.3 µM | MOLT-4 7.53 µM | SW-620 27.9 µM | OVCAR-3 15.6 µM | SK-MEL-5 14.3 µM | UACC-62 18 µM | NCI-H522 18.8 µM | HOP-92 22.3 µM | NCI-H23 23.2 µM | OVCAR-5 25.7 µM | MDA-MB-231 18.3 µM | TK-10 47.1 µM | HOP-62 18 µM

N#CC(Nc1ccccc1)c1ccc(C(C#N)Nc2ccccc2)cc1 (centres undefined)
inactive: NCI/ADR-RES 46.7 µM | SK-OV-3 > 100 µM | OVCAR-8 > 100 µM | MDA-MB-435 13.7 µM | DU-145 44.1 µM | SN12C 46.8 µM | RXF 393 > 100 µM | MOLT-4 32.2 µM | SW-620 20.2 µM | OVCAR-3 35.9 µM | SK-MEL-5 20.3 µM | UACC-62 3.57 µM | NCI-H522 > 100 µM | HOP-92 28.1 µM | NCI-H23 41.5 µM | OVCAR-5 > 100 µM | MDA-MB-231 > 100 µM | TK-10 28.4 µM

c1ccc2c(c1)Nc1nc3nonc3nc1N2
inactive: NCI/ADR-RES > 100 µM | SK-OV-3 > 100 µM | OVCAR-8 > 100 µM | MDA-MB-435 > 100 µM | DU-145 > 100 µM | SN12C > 100 µM | RXF 393 > 100 µM | MOLT-4 > 100 µM | SW-620 > 100 µM | SK-MEL-5 > 100 µM | UACC-62 > 100 µM | NCI-H522 > 100 µM | HOP-92 > 100 µM | NCI-H23 > 100 µM | OVCAR-5 > 100 µM | MDA-MB-231 > 100 µM | TK-10 > 100 µM | HOP-62 > 100 µM

CC1(C)C2CC3C4CC5(Nc6ccccc6C5N41)[C@]3(C)CC2=O (some centres undefined)
inactive: NCI/ADR-RES > 50 µM | OVCAR-8 > 50 µM | MDA-MB-435 > 50 µM | DU-145 > 50 µM | SN12C > 50 µM | RXF 393 > 50 µM | MOLT-4 > 50 µM | SW-620 > 50 µM | OVCAR-3 > 50 µM | SK-MEL-5 > 50 µM | UACC-62 > 50 µM | NCI-H522 > 50 µM | HOP-92 12.5 µM | NCI-H23 > 50 µM | OVCAR-5 > 50 µM | MDA-MB-231 > 50 µM | TK-10 > 50 µM | HOP-62 > 50 µM

C[C@@H](C(=O)O)N1C(c2ccco2)=C(/C(C=O)=C\c2ccco2)C(=O)/C1=C\c1ccco1
inactive: NCI/ADR-RES > 100 µM | OVCAR-8 > 100 µM | MDA-MB-435 > 100 µM | DU-145 > 100 µM | SN12C > 100 µM | RXF 393 > 100 µM | MOLT-4 > 100 µM | SW-620 > 100 µM | OVCAR-3 > 100 µM | SK-MEL-5 > 100 µM | UACC-62 > 100 µM | NCI-H522 > 100 µM | HOP-92 > 100 µM | NCI-H23 > 100 µM | OVCAR-5 > 100 µM | MDA-MB-231 > 100 µM | TK-10 > 100 µM | HOP-62 > 100 µM

COC(=O)c1cccc2c1Oc1ccccc1S2
inactive: NCI/ADR-RES 34.4 µM | SK-OV-3 > 100 µM | OVCAR-8 74.3 µM | MDA-MB-435 > 100 µM | DU-145 > 100 µM | SN12C 56.6 µM | RXF 393 33 µM | MOLT-4 24.5 µM | SW-620 59.6 µM | OVCAR-3 > 100 µM | SK-MEL-5 18.9 µM | UACC-62 > 100 µM | NCI-H522 27.1 µM | HOP-92 25.8 µM | OVCAR-5 73.8 µM | MDA-MB-231 38.7 µM | TK-10 > 100 µM | HOP-62 > 100 µM

N#Cc1c(N)[nH]c(=S)c(C#N)c1-c1cccc(Cl)c1
inactive: NCI/ADR-RES 67.1 µM | OVCAR-8 30.1 µM | MDA-MB-435 21.4 µM | DU-145 33.3 µM | SN12C 20.4 µM | RXF 393 22.4 µM | MOLT-4 18.4 µM | SW-620 24.4 µM | OVCAR-3 26.9 µM | SK-MEL-5 20.2 µM | UACC-62 29.6 µM | NCI-H522 18.9 µM | HOP-92 24.4 µM | NCI-H23 71.9 µM | OVCAR-5 > 100 µM | MDA-MB-231 29.4 µM | TK-10 65.2 µM | HOP-62 42.4 µM

COC(=O)/C=C/c1ccc2c(c1)CCC2
inactive: NCI/ADR-RES 24.5 µM | SK-OV-3 > 100 µM | OVCAR-8 53.5 µM | MDA-MB-435 63.1 µM | DU-145 43.3 µM | RXF 393 21 µM | MOLT-4 41.9 µM | SW-620 5.13 µM | OVCAR-3 17.7 µM | SK-MEL-5 30.2 µM | NCI-H522 22.1 µM | HOP-92 5.28 µM | NCI-H23 37.2 µM | OVCAR-5 > 100 µM | MDA-MB-231 63.2 µM | TK-10 > 100 µM | HOP-62 > 100 µM

Oc1ccc2oc3c(O)c4ccccc4cc3c2c1
inactive: NCI/ADR-RES 3.03 µM | SK-OV-3 16.2 µM | OVCAR-8 4.56 µM | DU-145 3.27 µM | SN12C 2.36 µM | RXF 393 2.44 µM | OVCAR-3 3.53 µM | SK-MEL-5 2.85 µM | HOP-92 10.7 µM | NCI-H23 10.6 µM | MDA-MB-231 12.8 µM | TK-10 4.75 µM | HOP-62 35.2 µM
active: MDA-MB-435 0.948 µM | MOLT-4 1.07 µM | SW-620 0.69 µM | UACC-62 0.121 µM | NCI-H522 1.01 µM

Cc1ccc(Nc2ncnc3sc(SCc4ccccc4)nc23)cc1
inactive: NCI/ADR-RES > 100 µM | SK-OV-3 > 100 µM | OVCAR-8 > 100 µM | MDA-MB-435 > 100 µM | DU-145 27.3 µM | SN12C > 100 µM | RXF 393 84.9 µM | MOLT-4 > 100 µM | SW-620 > 100 µM | OVCAR-3 > 100 µM | SK-MEL-5 82.6 µM | NCI-H522 > 100 µM | HOP-92 31.3 µM | NCI-H23 > 100 µM | OVCAR-5 43.7 µM | MDA-MB-231 > 100 µM | TK-10 52.4 µM | HOP-62 > 100 µM

CC1(C)OC2C(O)CN3CCS[C@H]3C2O1 (some centres undefined)
inactive: NCI/ADR-RES > 100 µM | SK-OV-3 > 100 µM | OVCAR-8 > 100 µM | MDA-MB-435 > 100 µM | DU-145 > 100 µM | RXF 393 > 100 µM | MOLT-4 > 100 µM | SW-620 > 100 µM | OVCAR-3 > 100 µM | SK-MEL-5 > 100 µM | UACC-62 > 100 µM | NCI-H522 > 100 µM | HOP-92 > 100 µM | NCI-H23 > 100 µM | OVCAR-5 > 100 µM | MDA-MB-231 > 100 µM | TK-10 > 100 µM | HOP-62 > 100 µM
